# Assay results taken from ChEMBL document CHEMBL3864145, “Synthesis and biological evaluation of crown ether acyl derivatives” (Bioorg Med Chem Lett, 2016).
# Tests used:
# [1] = Cytotoxicity against human SW1573 cells assessed as growth inhibition after 48 hrs by SRB assay; format: functional; conditions: SW1573, 48 h
# [2] = Cytotoxicity against human HeLa cells assessed as growth inhibition after 48 hrs by SRB assay; format: functional
# [3] = Cytotoxicity against human WiDr cells assessed as growth inhibition after 48 hrs by SRB assay; format: functional
# [4] = Cytotoxicity against human HBL100 cells assessed as growth inhibition after 48 hrs by SRB assay; format: functional; conditions: HBL-100, 48 h
# Candida albicans [5] = experiment: Antifungal activity against Candida albicans ATCC 90028 at 50 uM after 48 hrs by UV/Vis spectrophotometer relative to control; format: functional; conditions: ATCC 90028, 48 h
# Escherichia coli = experiment: Antibacterial activity against Escherichia coli ATCC 25922 at 50 uM after 24 hrs by UV/Vis spectrophotometer relative to control; format: functional; conditions: ATCC 25922, 24 h
# Staphylococcus aureus [6] = experiment: Antibacterial activity against Staphylococcus aureus ATCC 25923 at 50 uM after 24 hrs by UV/Vis spectrophotometer relative to control; format: functional; conditions: ATCC 25923, 24 h
# Enterococcus faecalis = experiment: Antibacterial activity against Enterococcus faecalis ATCC 29212 at 50 uM after 24 hrs by UV/Vis spectrophotometer relative to control; format: functional; conditions: ATCC 29212, 24 h
# [7] = Cytotoxicity against telomerase-immortalized human BJ cells assessed as growth inhibition after 48 hrs by SRB assay; format: toxicity, cell-based
# Staphylococcus aureus [8] = experiment: Antibacterial activity against Staphylococcus aureus ATCC 25923 by broth microdilution method; format: functional
# [9] = Ratio of MIC50 for Staphylococcus aureus ATCC 25923 to GI50 for human HeLa cells; format: functional
# [10] = Ratio of MIC50 for Staphylococcus aureus ATCC 25923 to GI50 for human WiDr cells; format: functional
# [11] = Ratio of MIC50 for Staphylococcus aureus ATCC 25923 to GI50 for human SW1573 cells; format: functional
# [12] = Ratio of MIC50 for Staphylococcus aureus ATCC 25923 to GI50 for human HBL100 cells; format: functional, HBL-100
# Candida albicans [13] = experiment: Antifungal activity against Candida albicans ATCC 90028 by broth microdilution method; format: functional
SMILES,GI50 [1],GI50 [2],GI50 [3],GI50 [4],inhibition at 50 µM (Candida albicans [5]),inhibition at 50 µM (Escherichia coli),inhibition at 50 µM (Staphylococcus aureus [6]),inhibition at 50 µM (Enterococcus faecalis),GI50 at 48 h [7],MIC50 (Staphylococcus aureus [8]),MIC90 (Staphylococcus aureus [8]),Ratio [9],Ratio [10],Ratio [11],Ratio [12],MIC90 (Candida albicans [13]),MIC50 (Candida albicans [13])
COc1cc([C@@H]2c3cc4c(cc3[C@@H](O[C@@H]3O[C@@H]5CO[C@@H](C)O[C@H]5[C@H](O)[C@H]3O)[C@H]3COC(=O)[C@H]23)OCO4)cc(OC)c1O [ETOPOSIDE],15 µM,3.3 µM,23 µM,1.4 µM,,,,,,,,,,,,,
COc1ccc(/C=C/C(=O)OCC2COCCOCCOCCOCCOCCO2)cc1 (stereo unspecified),54 µM,56 µM,56 µM,50 µM,0%,7.3%,0%,0%,> 100 µM,,,,,,,,
CC/C=C/CC(=O)OCC1COCCOCCOCCOCCOCCO1 (stereo unspecified),> 100 µM,> 100 µM,> 100 µM,> 100 µM,9.4%,4.3%,6.9%,4.7%,,,,,,,,,
O=C(OCC1COCCOCCOCCOCCOCCO1)c1c2ccccc2cc2ccccc12 (stereo unspecified),3.8 µM,3.7 µM,5.6 µM,5 µM,4.3%,7.8%,98%,0%,5.4 µM,11.1 µg/mL,50 µM,4,4,4,4,,
O=C(Cc1cccc(OCc2ccccc2)c1)OCC1COCCOCCOCCOCCOCCO1 (stereo unspecified),36 µM,35 µM,24 µM,29 µM,0%,3.6%,0%,0%,22 µM,,,,,,,,
O=C(CCCCc1ccccc1)OCC1COCCOCCOCCOCCOCCO1 (stereo unspecified),> 100 µM,52 µM,> 100 µM,69 µM,5.5%,5%,0%,0.3%,,,,,,,,,
O=C(CCCCCc1ccccc1)OCC1COCCOCCOCCOCCOCCO1 (stereo unspecified),78 µM,79 µM,> 100 µM,64 µM,11%,5.8%,0%,0%,,,,,,,,,
CC1(C(=O)OCC2COCCOCCOCCOCCOCCO2)c2ccccc2-c2ccccc21 (stereo unspecified),8.8 µM,12 µM,12 µM,11 µM,0%,0.1%,0%,0%,18 µM,,,,,,,,
O=C(CCCCC1CCCCC1)OCC1COCCOCCOCCOCCO1 (stereo unspecified),> 100 µM,> 100 µM,> 100 µM,> 100 µM,0%,3.1%,0%,0%,,,,,,,,,
C[C@@H]1[C@H](O)[C@@H](C)/C=C/C=C/C=C/C=C/C=C/C=C/C=C/[C@H](O[C@@H]2O[C@H](C)[C@@H](O)[C@H](N)[C@@H]2O)C[C@@H]2O[C@](O)(C[C@@H](O)C[C@@H](O)[C@H](O)CC[C@@H](O)C[C@@H](O)CC(=O)O[C@H]1C)C[C@H](O)[C@H]2C(=O)O [AMPHOTERICIN B],,,,,,,,,,,,,,,,0.5 µg/mL,
O=C(OCC1COCCOCCOCCOCCOCCO1)c1cccc(-c2ccc(Br)cc2)c1 (stereo unspecified),4.4 µM,7.8 µM,6.2 µM,6.4 µM,1%,6.5%,98%,0%,8.2 µM,6.8 µg/mL,25 µM,,,,,,
O=C(CCCCOc1ccccc1)OCC1COCCOCCOCCOCCOCCO1 (stereo unspecified),> 100 µM,> 100 µM,> 100 µM,> 100 µM,1.6%,8.1%,0%,3.5%,,,,,,,,,
CC(C)=CC1C(C(=O)OCC2COCCOCCOCCOCCOCCO2)C1(C)C (stereo unspecified),54 µM,63 µM,56 µM,40 µM,0%,0%,0%,0%,> 100 µM,,,,,,,,
O=C(CCCCCCCCCCOc1ccccc1)OCC1COCCOCCOCCOCCOCCO1 (stereo unspecified),24 µM,41 µM,66 µM,20 µM,101%,0%,29%,2.1%,24 µM,,,,,,,36 µM,
O=C(CCCCC1CCCCC1)OCC1COCCOCCOCCOCCOCCO1 (stereo unspecified),51 µM,71 µM,33 µM,72 µM,0%,0%,61%,0%,,,,,,,,,
O=C(O)c1cn(C2CC2)c2cc(N3CCNCC3)c(F)cc2c1=O [CIPROFLOXACIN],,,,,,,,,,,0.5 µg/mL,,,,,,
O=C(/C=C/c1ccccc1)OCC1COCCOCCOCCOCCOCCO1 (stereo unspecified),48 µM,48 µM,> 100 µM,57 µM,36.7%,5.9%,3.4%,3.3%,,,,,,,,,
O=C(CCCCC1CCCCC1)OCC1COCCOCCOCCO1 (stereo unspecified),> 100 µM,> 100 µM,> 100 µM,> 100 µM,0%,4.9%,0%,0%,,,,,,,,,
O=C(OCC1COCCOCCOCCOCCOCCO1)c1cccnc1 (stereo unspecified),> 100 µM,> 100 µM,> 100 µM,> 100 µM,24%,6.2%,0%,6.8%,,,,,,,,,
O=C(CCc1ccc2ccc3cccc4ccc1c2c34)OCC1COCCOCCOCCOCCOCCO1 (stereo unspecified),18 µM,17 µM,19 µM,21 µM,101%,0%,99%,0%,19 µM,7.2 µM,8.3 µM,,,,,42 µM,20.1 µg/mL
O=C(CCCc1cc2ccccc2[nH]1)OCC1COCCOCCOCCOCCOCCO1 (stereo unspecified),> 100 µM,> 100 µM,> 100 µM,> 100 µM,,,,,,,,,,,,,
CC(=O)OCC1COCCOCCOCCOCCOCCO1 (stereo unspecified),> 100 µM,> 100 µM,> 100 µM,> 100 µM,,,,,,,,,,,,,
